Tests used:
[1] = target: T1, full length human wildtype Btk (Homo sapiens, UniProt Q06187); experiment: Biochemical Btk Assay (BTK LC3K)
T1 construct: V5 (C); 6xHis (C); made in house; host or cells: Sf9 insect cells (baculovirus, pFastBac)
Protocol: A generalized procedure for a standard biochemical Btk, Kinase Assay that can be used to test Formula I compounds is as follows. A master mix minus Btk enzyme is prepared containing 1× Cell Signaling kinase buffer (25 mM Tris-HCl, pH 7.5, 5 mM beta-glycerophosphate, 2 mM dithiothreitol, 0.1 mM Na3VO4, 10 mM MgCl2), 0.5 μM Promega PTK Biotinylated peptide substrate 2, and 0.01% BSA. A master mix plus Btk enzyme is prepared containing 1× Cell Signaling kinase buffer, 0.5 μM (micromolar) PTK Biotinylated peptide substrate 2, 0.01% BSA, and 100 ng/well (0.06 mU/well) Btk enzyme. Btk enzyme is prepared as follows: full length human wildtype Btk (accession number NM-000061) with a C-terminal V5 and 6×His tag was subcloned into pFastBac® vector (Invitrogen/Life Technologies) for making baculovirus carrying this epitope-tagged Btk. […] Passage 3 virus is used to infect Sf9 cells to overexpress the recombinant Btk protein. The Btk protein is then purified to homogeneity using Ni-NTA column. […] A solution of 200 μM ATP is prepared in water and adjusted to pH 7.4 with 1N NaOH. A quantity of 1.25 μL (microliter) of compounds in 5% DMSO is transferred to a 96-well ½ area Costar polystyrene plate. Compounds are tested singly and with an 11-point dose-responsive curve (starting concentration is 10 μM; 1:2 dilution). A quantity of 18.75 μL of master mix minus enzyme (as a negative control) and master mix plus enzyme is transferred to appropriate wells in 96-well ½ area costar polystyrene plate. 5 μL of 200 μM ATP is added to that mixture in the 96-well ½ area Costar polystyrene plate for final ATP concentration of 40 μM. The reaction is allowed to incubate for 1 hour at room temperature. The reaction is stopped with Perkin Elmer 1× detection buffer containing 30 mM EDTA, 20 nM SA-APC, and 1 nM PT66 Ab. […] IC50 values are subsequently calculated. Alternatively, the Lanthascreen assay can be used to evaluate Btk activity through quantification of its phosphorylated peptide product. The FRET (Fluorescence Resonance Energy Transfer) that occurs between the fluorescein on the peptide product and the terbium on the detection antibody decreases with the addition of inhibitors of Btk that reduce the phosphorylation of the peptide. In a final reaction volume of 25 uL, Btk (h) (0.1 ng/25 ul reaction) is incubated with 50 mM Hepes pH 7.5, 10 mM MgCl2, 2 mM MnCl2, 2 mM DTT, 0.2 mM NaVO4, 0.01% BSA, and 0.4 uM fluorescein poly-GAT. […] After incubation for 60 minutes at room temperature, the reaction is stopped by the addition of a final concentration of 2 nM Tb-PY20 detection antibody in 60 mM EDTA for 30 minutes at room temperature.

[2] = system: CD69 by B lymphocytes in human whole blood activated with goat F(ab')2 anti-human IgM; experiment: CD69 Whole Blood Assay (CD69 Hu Blood FACS); assay type: cell-based; conditions: Lymphocyte, CD69 positive of CD20 positive cells
Protocol: CD69 is a type II C-type lectin involved in lymphocyte migration and cytokine secretion.
Human blood is obtained from healthy volunteers, with the following restrictions: 1 week drug-free, non-smokers. Blood (approximately 20 mls to test 8 compounds) is collected by venipuncture into Vacutainer® (Becton, Dickinson and Co.) tubes with sodium heparin.
Solutions of Formula I compounds at 10 mM in DMSO are diluted 1:10 in 100% DMSO, then are diluted by three-fold serial dilutions in 100% DMSO for a ten point dose-response curve. The compounds are further diluted 1:10 in PBS and then an aliquot of 5.5 μl of each compound is added in duplicate to a 2 ml 96-well plate; 5.5 μl of 10% DMSO in PBS is added as control and no-stimulus wells. Human whole blood—HWB (100 μl) is added to each well. After mixing the plates are incubated at 37° C., 5% CO2, 100% humidity for 30 minutes. Goat F(ab′)2 anti-human IgM (10 μl of a 500 μg/ml solution, 50 μg/ml final) is added to each well (except the no-stimulus wells) with mixing and the plates are incubated for an additional 20 hours. At the end of the 20 hour incubation, samples are incubated with fluorescent labeled antibodies for 30 minutes, at 37° C., 5% CO2, 100% humidity. Include induced control, unstained and single stains for compensation adjustments and initial voltage settings. Samples are then lysed with PharM Lyse™ (BD Biosciences Pharmingen) according to the manufacturer's instructions. Samples are then transferred to a 96 well plate suitable to be run on the BD Biosciences HTS 96 well system on the LSRII machine. Data acquired and Mean Fluorescence Intensity values were obtained using BD Biosciences DIVA Software. Results are initially analyzed by FACS analysis software (Flow Jo).

T1 sequence (Q06187 whole entry): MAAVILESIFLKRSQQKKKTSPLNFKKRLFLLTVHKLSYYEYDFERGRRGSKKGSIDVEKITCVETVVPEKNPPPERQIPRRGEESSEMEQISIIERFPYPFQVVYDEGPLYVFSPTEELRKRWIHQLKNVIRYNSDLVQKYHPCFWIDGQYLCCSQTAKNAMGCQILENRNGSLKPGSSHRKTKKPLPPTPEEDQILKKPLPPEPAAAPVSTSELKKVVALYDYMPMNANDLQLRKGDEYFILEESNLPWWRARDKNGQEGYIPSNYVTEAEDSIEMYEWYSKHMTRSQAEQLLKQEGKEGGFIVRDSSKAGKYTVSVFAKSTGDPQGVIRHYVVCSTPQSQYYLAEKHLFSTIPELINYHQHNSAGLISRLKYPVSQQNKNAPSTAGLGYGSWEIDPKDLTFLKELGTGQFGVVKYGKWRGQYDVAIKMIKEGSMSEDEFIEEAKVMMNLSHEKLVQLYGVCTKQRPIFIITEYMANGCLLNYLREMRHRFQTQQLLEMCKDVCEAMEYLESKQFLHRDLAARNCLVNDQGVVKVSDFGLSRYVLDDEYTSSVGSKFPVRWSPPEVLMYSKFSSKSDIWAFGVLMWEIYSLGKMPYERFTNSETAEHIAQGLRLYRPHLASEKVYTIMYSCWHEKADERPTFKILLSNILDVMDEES

Row | SMILES | Ki ([1]; Table 1) | IC50 ([2]; Table 1, anti-IgM stimulation) | Ki ([1]; Table 2) | IC50 ([2]; Table 2, anti-IgM stimulation)
1 | Cc1cc(C)n(CC(=O)Nc2cc(-c3ccnc(N4CCn5c(cc6c5CC(C)(C)C6)C4=O)c3CO)cn(C)c2=O)n1 [Compound 108, N-[5-[2-(7,7-dimethyl-4-oxo-1,2,6,8-tetrahydrocyclopenta[3,4]pyrrolo[3,5-b]pyrazin-3-yl)-3-(hydroxymethyl)-4-pyridyl]-1-methyl-2-oxo-3-pyridyl]-2-(3,5-dimethylpyrazol-1-yl)acetamide] | 51.6 nM | 2400 nM |  | 
2 | Cn1cc(-c2ccnc(N3CCn4c(cc5c4CC(C)(C)C5)C3=O)c2CO)cc(NC(=O)[C@@H]2CC23CCC3)c1=O (single isomer, unassigned) [Compound 146] |  |  | 17 nM | 5200 nM
3 | Cn1cc(-c2ccnc(N3CCn4c(cc5c4CC(C)(C)C5)C3=O)c2CO)cc(NC(=O)C2CC2(F)F)c1=O (stereo not shown) [Compound 116, N-[5-[2-(7,7-dimethyl-4-oxo-1,2,6,8-tetrahydrocyclopenta[3,4]pyrrolo[3,5-b]pyrazin-3-yl)-3-(hydroxymethyl)-4-pyridyl]-1-methyl-2-oxo-3-pyridyl]-2,2-difluoro-cyclopropanecarboxamide] | 34.8 nM | 988 nM |  | 
4 | Cn1cc(-c2ccnc(N3CCn4c(cc5c4CC(C)(C)C5)C3=O)c2CO)cc(NC(=O)c2cnco2)c1=O [Compound 115, N-[5-[2-(7,7-dimethyl-4-oxo-1,2,6,8-tetrahydrocyclopenta[3,4]pyrrolo[3,5-b]pyrazin-3-yl)-3-(hydroxymethyl)-4-pyridyl]-1-methyl-2-oxo-3-pyridyl]oxazole-5-carboxamide] | > 500 nM | > 3200 nM |  | 
5 | Cn1cc(C(=O)Nc2cc(-c3ccnc(N4CCn5c(cc6c5CC(C)(C)C6)C4=O)c3CO)cn(C)c2=O)cn1 [Compound 110, N-[5-[2-(7,7-dimethyl-4-oxo-1,2,6,8-tetrahydrocyclopenta[3,4]pyrrolo[3,5-b]pyrazin-3-yl)-3-(hydroxymethyl)-4-pyridyl]-1-methyl-2-oxo-3-pyridyl]-1-methyl-pyrazole-4-carboxamide] | > 167 nM | > 2600 nM |  | 
6 | Cn1cc(-c2cc(F)cc(N3CCn4c(cc5c4CC(C)(C)C5)C3=O)c2CO)cc(NC(=O)[C@H]2C[C@H]2F)c1=O [Compound 176, (1R,2R)—N-[5-[3-(7,7-dimethyl-4-oxo-1,2,6,8-tetrahydrocyclopenta[3,4]pyrrole[3,5-b]pyrazin-3-yl)-5-fluoro-2-(hydroxymethyl)phenyl]-1-methyl-2-oxo-3-pyridyl]-2-fluoro-cyclopropanecarboxamide] |  |  | 2.1 nM | 32.7 nM
7 | CN1CC[C@]2(C[C@@H]2C(=O)Nc2cc(-c3ccnc(-n4ncc5cc(C(C)(C)C)cc(F)c5c4=O)c3CO)cn(C)c2=O)C1 (single isomer, unassigned) [Compound 173] |  |  | 26 nM | > 4800 nM
8 | Cn1cc(-c2ccnc(N3CCn4c(cc5c4CC(C)(C)C5)C3=O)c2CO)cc(NC(=O)[C@H]2CC23CC3)c1=O (single isomer, unassigned) [Compound 141] |  |  | 5.8 nM | 1600 nM
9 | CN(C)C(=O)C1C[C@H]1C(=O)Nc1cc(-c2ccnc(-n3ncc4cc(C(C)(C)C)cc(F)c4c3=O)c2CO)cn(C)c1=O (single isomer, unassigned) [Compound 170, N2-[5-[2-(6-tert-butyl-8-fluoro-1-oxo-phthalazin-2-yl)-3-(hydroxymethyl)-4-pyridyl]-1-methyl-2-oxo-3-pyridyl]-N1,N1-dimethyl-cyclopropane-1,2-dicarboxamide] |  |  | 25 nM | > 4800 nM
10 | Cn1cc(-c2ccnc(N3CCn4c(cc5c4CC(C)(C)C5)C3=O)c2CO)cc(NC(=O)CN2CCOCC2)c1=O [Compound 105, N-[5-[2-(7,7-dimethyl-4-oxo-1,2,6,8-tetrahydrocyclopenta[3,4]pyrrolo[3,5-b]pyrazin-3-yl)-3-(hydroxymethyl)-4-pyridyl]-1-methyl-2-oxo-3-pyridyl]-2-morpholino-acetamide] | > 55.6 nM | > 5000 nM |  | 
11 | CCNC(=O)Nc1cc(-c2ccnc(N3CCn4c(cc5c4CC(C)(C)C5)C3=O)c2CO)cn(C)c1=O [Compound 159, 1-[5-[2-(7,7-dimethyl-4-oxo-1,2,6,8-tetrahydrocyclopenta[3,4]pyrrolo[3,5-b]pyrazin-3-yl)-3-(hydroxymethyl)-4-pyridyl]-1-methyl-2-oxo-3-pyridyl]-3-ethyl-urea] |  |  | 1.6 nM | 133 nM
12 | Cn1cc(-c2ccnc(N3CCc4cc(OC(F)F)cc(F)c4C3=O)c2CO)cc(NC(=O)[C@@H]2C[C@@H]2F)c1=O [Compound 151, (1S,2S)—N-[5-[2-[6-(difluoromethoxy)-8-fluoro-1-oxo-3,4-dihydroisoquinolin-2-yl]-3-(hydroxymethyl)-4-pyridyl]-1-methyl-2-oxo-3-pyridyl]-2-fluoro-cyclopropanecarboxamide] |  |  | 66 nM | > 5300 nM
13 | Cc1cc(C(=O)Nc2cc(-c3ccnc(N4CCn5c(cc6c5CC(C)(C)C6)C4=O)c3CO)cn(C)c2=O)n[nH]1 [Compound 111, N-[5-[2-(7,7-dimethyl-4-oxo-1,2,6,8-tetrahydrocyclopenta[3,4]pyrrolo[3,5-b]pyrazin-3-yl)-3-(hydroxymethyl)-4-pyridyl]-1-methyl-2-oxo-3-pyridyl]-5-methyl-1H-pyrazole-3-carboxamide] | > 500 nM | > 5400 nM |  | 
14 | Cn1cc(-c2cc(F)cc(N3CCc4c(cc5n4CC(C)(C)C5)C3=O)c2CO)cc(NC(=O)[C@@H]2C[C@@H]2F)c1=O [Compound 168] |  |  | 1 nM | 157 nM
15 | Cc1cc(C(=O)Nc2cc(-c3ccnc(N4CCn5c(cc6c5CC(C)(C)C6)C4=O)c3CO)cn(C)c2=O)nn1C [Compound 112, N-[5-[2-(7,7-dimethyl-4-oxo-1,2,6,8-tetrahydrocyclopenta[3,4]pyrrolo[3,5-b]pyrazin-3-yl)-3-(hydroxymethyl)-4-pyridyl]-1-methyl-2-oxo-3-pyridyl]-1,5-dimethyl-pyrazole-3-carboxamide] | > 500 nM | > 5800 nM |  | 
16 | CN1CCC2(CC1)C[C@H]2C(=O)Nc1cc(-c2ccnc(-n3ncc4cc(C(C)(C)C)cc(F)c4c3=O)c2CO)cn(C)c1=O (single isomer, unassigned) [Compound 165] |  |  | 40.8 nM | > 4800 nM
17 | Cn1cc(-c2cc(F)cc(N3CCc4c(cc5n4CCCC5)C3=O)c2CO)cc(NC(=O)[C@@H]2C[C@@H]2F)c1=O [Compound 167, (1S,2S)-2-fluoro-N-[5-[5-fluoro-2-(hydroxymethyl)-3-(1-oxo-3,4,6,7,8,9-hexahydropyrido[3,4-b]indolizin-2-yl)phenyl]-1-methyl-2-oxo-3-pyridyl]cyclopropanecarboxamide] |  |  | 2.4 nM | 245 nM
